Reference: US20090275538A1, “ARYLMETHYLIDENE HETEROCYCLES AS NOVEL ANALGESICS” (priority 2008, published 2009)

Tested on: neuropathic rats (chronic constriction injury of the left sciatic nerve)
Experiment: Analgesic effect in chronic constriction injury (Bennett) model of neuropathic pain, Von Frey 50% withdrawal threshold
Format: in vivo, Sprague-Dawley rats
Details: rats rendered neuropathic via the Bennett Model; intrathecal administration in Captisol; mean ± SEM; p<0.05 vs vehicle control
Description: Determination of Analgesic Effect in an Experimental Model of Neuropathic Pain
Adult, male Sprague-Dawley rats were obtained from Charles River Laboratories (Wilmington, Mass.) and housed under standard conditions at the Institut Armand-Frappier (Laval, QC). Food and water were provided to experimental animals ad libitum, and rats weighed 175-200 grams at the time of assessment.
Compounds were prepared for intrathecal administration by dissolving them in a vehicle of Captisol® (CyDex, Lenexa, Kans.); total volume of solution administered to rats was 20 μL.
Neuropathic pain was induced in rats via chronic constriction injury (CCl) of the left sciatic nerve in accordance with the procedure described by Bennett & Xie (Pain, 1988). Briefly, under ketamine/xylazine anaesthesia, the sciatic nerve was exposed by dissection at the level of mid-thigh, and four loose ligatures (USP 4/0, Braun Melsungen, FRG) were implanted around the nerve—with due attention not to interrupt the epineural circulation. The incision was closed-up using simple suturing, and the rats allowed to recover.
After approximately two weeks, a stable allodynia to blunt mechanical stimuli was identified in the hind paw ipsilateral to the CCl, manifested as a reduction of 50% withdrawal threshold, and identified using the Von Frey technique, as described by Chaplan et al. (Journal of Neuroscience Methods, 1994). Rats were considered to be fully neuropathic upon displaying a 50% withdrawal threshold of <3.5 grams consistently over the course of 72 hours.
Under brief isoflurane […], compounds were administered to neuropathic rats via acute local delivery in the intrathecal space surrounding the lumbar enlargement of the spinal cord.

Structure (SMILES)	Peak 50% Withdrawal Threshold
CN(C)[C@H]1CCN(C2=NC(=O)/C(=C/c3ccc(F)cc3O)S2)C1.CS(=O)(=O)O	7.3 ± 1.37 g
CCN(CC)C1CCN(C2=NC(=O)/C(=C\c3cc(F)ccc3OC(=O)N(C)C)S2)C1 (stereo not shown)	11.84 ± 1.58 g
O=C1N=C(N2CCN(CCO)CC2)S/C1=C\c1ccc(F)cc1O	8.23 ± 2.40 g
CN(C)[C@@H]1CCN(C2=NC(=O)/C(=C/c3ccc(F)cc3O)S2)C1	5.6 ± 1.94 g
O=C1N=C(N2CCCCC2)S/C1=C\c1ccccc1O	6.74 ± 2.13 g
Cl.O=C1N=C(N2CCCCN2)S/C1=C/c1cc(F)ccc1OC(=O)N1CCCC1 [2-{[(5E)-2-(1,2-diazinan-1-yl)-4-oxo-4,5-dihydro-1,3-thiazol-5-ylidene]methyl}-4-fluorophenylpyrrolidine-1-carboxylate hydrochloride]	8.18 ± 1.98 g
CS(=O)(=O)O.O=C1N=C(N2CCN(CCO)CC2)S/C1=C\c1cc(F)ccc1O	6.40 ± 2.45 g
CN(C)[C@H]1CCN(C2=NC(=O)/C(=C/c3cc(F)ccc3O)S2)C1.CS(=O)(=O)O	9.72 ± 2.04 g
Cl.O=C1N=C(N2CCCCN2)S/C1=C/c1ccc(F)cc1OC(=O)N1CCCC1 [2-{[(5E)-2-(1,2-diazinan-1-yl)-4-oxo-4,5-dihydro-1,3-thiazol-5-ylidene]methyl}-5-fluorophenyl pyrrolidine-1-carboxylate hydrochloride]	7.42 ± 1.21 g
O=C1N=C(N2CCCCN2)S/C1=C\c1ccc(F)cc1O [(5Z)-2-(1,2-diazinan-1-yl)-5-[(4-fluoro-2-hydroxyphenyl)methylidene]-4,5-dihydro-1,3-thiazol-4-one]	7.37 ± 2.02 g
CN(C)[C@@H]1CCN(C2=NC/C(=C/c3cc(F)ccc3O)S2)C1.Cl	6.44 ± 1.33 g
O=C1N=C(N2CCCCN2)S/C1=C\c1cc(F)ccc1O [(5Z)-2-(1,2-diazinan-1-yl)-5-[(5-fluoro-2-hydroxyphenyl)methylidene]-4,5-dihydro-1,3-thiazol-4-one]	9.03 ± 2.00 g
CN(C)C(=O)Oc1cc(F)ccc1/C=C1/SC(N2CCCCN2)=NC1=O.Cl [2-{[(5E)-2-(1,2-diazinan-1-yl)-4-oxo-4,5-dihydro-1,3-thiazol-5-ylidene]methyl}-5-fluorophenyl N,N-dimethylcarbamate hydrochloride]	6.18 ± 1.77 g
